Here are results for 5 compounds from patent US6790862B2 (priority 1999, dated 2004).

The conditions of data set [1]: indirect, fragment-based computational calculation; cited from earlier work.
Data set [2] deals with HL-60 cells. The experiment in a line: MTT cell proliferation assay. It is filed as cell-based, human. The settings on record: for IC50: Homo sapiens. The method, then: Tumorigenic and non-tumorigenic cell lines were cultured as previously described in Hood K. A., West L. M., Northcote P. T., Berridge M. V., Miller J. H., Apoptosis (2001), 6, 207-219. These cell lines included HL-60 and KS62, two tumorigenic human myeloid leukemic cell lines, 32D clone 3 (32D), a non-tumorigenic murine myeloid cell line, 32D-ras, the ras-transformed derivative of 32D, H441, a human lung adenocarcinoma cell line, SH-SY5Y, a human neuroblastoma cell line, and LLC-PK1, a non-tumorigenic pig kidney cell line. IC50 values for Peloruside A in the different cell lines were determined using the tetrazolium-based MTT cell proliferation assay as previously described (Hood K. A et al.).
A general note: Formazan colour is commonly taken as a measure of viable cells.

The subject of data set [3] is b-tubulin in HL-60 cells. As to the kind of experiment: in situ tubulin polymerization, immunoblot of soluble and particulate fractions. It is filed as cell-based, human. The settings on record: 5 h; for effect on proportion of soluble to polymerized tubulin: HL-60, different concentrations. The source says: A simple in situ cellular assay as described by Giannakakou P., Gussio R., Nogales E., Downing K. H., Zaharevitz D., Bollbuck B., Poy G., Sackett D., Nicolaou K. C., Fojo T., Proc. Nat. Acad. Sci. (USA) (2000), 97, 2904-2909 was used in which the shift in tubulin from depolymerized to polymerized forms was followed by electrophoresis and Western blotting of centrifuged particulate and cytosolic fractions. To summarize, 2×10^6 untreated and drug-exposed HL-60 cells were lysed by exposure for 5 min at 37° C. to […] of hypotonic buffer (1 mM MgCl2, 2 mM EGTA, 1% Nonidet P-40, 2 mM phenylmethylsulfonyl fluoride, 1 mg/mL aprotinin, 2 mg/mL pepstatin, and 20 mM Tris-HCl, pH 6.8) and the particulate fraction separated from the soluble cytosolic fraction by high speed centrifugation for 10 min in a bench-top centrifuge. Samples labeled ‘0 min’ received drug immediately before collection of the cells. The processing of the cells to the critical centrifugation step required approximately 30 min. The pellet was dissolved in […] of sample buffer (8 M urea, 4% CHAPS, 3 M thiourea, and 40 mM DTT). Twenty mL of loading buffer was added to each […] sample, the samples were vortexed and then boiled for 5 min. Twenty mL of each sample was loaded on an SDS/10% polyacrylamide gel and resolved by electrophoresis. b-Tubulin bands were identified by Western blotting using b-tubulin primary antibody ( 1/1000 dilution) following standard immunoblotting procedures with detection by enhanced chemiluminescence (Lumi-Light, Roche).
Scale bar (lower right)=500 nm.
Background: In western blotting, separated proteins are transferred to a membrane and probed.

Data set [4] relates to H441 (human lung adenocarcinoma). The experiment in a line: MTT cytotoxicity assay, 96 hours exposure. It is filed as cell-based. Conditions: H441; comparators at their respective LD50s. As for the experimental part: The cytotoxicity of Peloruside A was tested in five cell lines:
H441 (human lung adenocarcinoma)
32D (murine myeloid) generally in accordance with the MTT assay of Burres et al., J. Cancer Research (1989), 49, 2935-2940.
Briefly, cell lines were maintained in Dulbecco's modified Eagle's medium: F12 medium (50:50) (Gibco) supplemented with 10% fetal calf serum (Gibco), […] Penicillin G, and […] streptomycin sulfate. After 96 hours exposure to the toxin, cell viability was determined by the MTT calorimetric assay. […] Data were analysed with the SYSTAT statistical program using a non-linear model fit, and IC50 values were calculated using a Logit-Log plot.

The subject of data set [5] is purified tubulin. The experiment in a line: in vitro tubulin polymerization and electron microscopy. It is filed as biochemical. On the set-up: polymerization of purified tubulin in solution: dose or concentration left out as unconfirmed. As for the experimental part:
Purified tubulin (approximately 7.5 mg protein) containing approximately 15% microtubule-associated proteins was obtained from Sigma and reconstituted in 0.1 M MES buffer, pH 6.8, 1 mM EGTA, 0.1 mM EDTA, 0.5 mM MgCl2, 1 mM DTT, 0.1 mM GTP, 1 mg/mL leupeptin, 1 mg/mL aprotinin, and 100 mg/mL sucrose as stabilizer. The reconstituted tubulin was incubated at 37° C. for 30 min in the presence of […] Peloruside A or […] paclitaxel. Samples […] were pipetted onto 400-mesh carbon- and Formvar-coated copper grids and left for 2 min at RT before blotting with filter paper. Each grid was stained with 5 mL of 1% uranyl acetate for 3 min at RT, then blotted with filter paper. Grids were air-dried overnight before examination in a Philips CM100 transmission electron microscope.
(B) Immunoblots following exposure to […] Peloruside A and […] paclitaxel for varying lengths of time. (C) Transmission electron micrograph of microtubules formed following treatment of purified soluble tubulin with […] Peloruside A for 30 min at 37° C. Scale bar (lower right)=500 nm.

Data set [6] concerns HeLa cells. As to the kind of experiment: anti-metabolic activity, WST-1 reduction. It is filed as cell-based. The settings on record: 12-24 mM. As for the experimental part: (§1) The effect of Peloruside A and paclitaxel on superoxide production was determined using human peripheral blood neutrophils activated with […] N-formyl-met-leu-phe (fMLP) as described previously (Tan A. S., Berridge M. V., J. Immunol. Meth. (2000), 238, 59-68). In this microplate assay, the cell-impermeable tetrazolium salt, WST-1, is reduced to its soluble formazan and dye reduction measured at 450 nm as an initial rate over 10-20 min. Samples were equilibrated with cells for 3 min at 37° C. and the reaction initiated by adding fMLP. Measurement of anti-metabolic activity followed a similar microplate protocol except that HeLa cells were used instead of neutrophils, cells were not activated with fMLP, and the intermediate electron acceptor, 1-methoxy phenazine methosulfate at 25 mM, was included in the WST-1 reagent to facilitate detection of low potential electrons from the plasma membrane.

Data set [7] concerns human peripheral blood neutrophils. The experiment in a line: fMLP-activated respiratory burst, superoxide production (WST-1). It is filed as cell-based. On the set-up: dose or concentration left out as unconfirmed. The method, then: as §1
In data set [8] the test system is H441 cells. As to the kind of experiment: cellular morphology, phase-contrast microscopy. It is filed as cell-based, human. The method, then:
Phase-contrast photomicrographs of H441 human lung adenocarcinoma cells: untreated control cells (A) and cells exposed for 48 h to 100 nM Peloruside A (B) or 100 nM paclitaxel (C). Note the intracellular fiber bundles in approximately 10% of the treated cells and the numerous micronuclei, each with a dark central spot of condensed DNA. Scale bar=[…].

The test system of data set [9] is K562 cells. The experiment in a line: cellular morphology. It counts as cell-based, human. Conditions: K562, 2 days exposure, 100 nM.
In data set [10] the test system is H441 cells. As to the kind of experiment: cell cycle by flow cytometry (PI) and mitotic index. Conditions: H441, 24 h. On the set-up: metaphase-arrested cells (mitotic index): dose or concentration left out as unconfirmed. It is filed as cell-based, human. The method, then:
Using standard methodology, the DNA of cells was stained with propidium iodide (PI), and the proportion of cells in different phases of the cell cycle was monitored by flow cytometry. Briefly, H441 cells were treated with […] for 24 h. Adherent cells were collected by trypsinization and added to those in suspension. The cells were then fixed with cold 70% ethanol overnight and stained with PI solution consisting of 45 mg/mL PI, 10 mg/mL RNaseA, and 0.1% glucose. After a 2 h incubation at RT, samples were analysed in a FACSort flow cytometer (Becton Dickinson).
Cells were treated with […] Peloruside A or paclitaxel, stained with PI, and counted by flow cytometry. For the mitotic index, cells were treated for 24 h with different concentrations of Peloruside A or paclitaxel, and the number of cells in mitosis divided by the total number of cells (n=at least 400 cells counted in each of 3 preparations).
A general note: In flow cytometry, cells or beads pass a laser one at a time.

Where two headings read alike, the source gives them in different places.

Regarding `C=C/C=C\[C@H](C)[C@H](OC(N)=O)[C@@H](C)[C@H](O)[C@@H](C)C/C(C)=C\[C@H](C)[C@@H](O)[C@@H](C)/C=C\[C@@H](O)C[C@@H]1OC(=O)[C@H](C)[C@@H](O)[C@H]1C` [Discodermolide, discodermolide], the “solubility relative to paclitaxel” value in [1] is reported as 160 fold.

Consider `CCC(/C=C(/C)C1C[C@H](OC)C[C@@H](O)C(C)(C)C(O)C(O)C(OC)C[C@H](O)C[C@H](OC)[C@@H](O)C(=O)O1)CO` (stereo partly shown) [Peloruside A reduction product], for which the “increase of IC50 relative to Peloruside A” value in data set [2] (HL-60 cells) is 31 fold. For the same compound, the IC50 – broadly, the concentration needed to halve the response being measured – in [2] (HL-60) worked out at 221 ± 24 nM. Further, in data set [3], the “effect on proportion of soluble to polymerized tubulin” value was “no significant effect”.

Turning to `C=C1C[C@](OC)([C@H](O)C(=O)N[C@H]2OCO[C@H]3[C@@H]2O[C@H](C[C@H](O)CO)C(C)(C)[C@@H]3OC)O[C@H](C)[C@@H]1C` [mycalamide A, reference compound], in [4], the “nuclei break up into small vessicles (nuclear blebbing)” value is on record as “not been observed”.

As for `CC(=O)O[C@H]1C(=O)[C@@]2(C)[C@H]([C@H](OC(=O)c3ccccc3)[C@]3(O)C[C@H](OC(=O)[C@H](O)[C@@H](NC(=O)c4ccccc4)c4ccccc4)C(C)=C1C3(C)C)[C@]1(OC(C)=O)CO[C@@H]1C[C@@H]2O` [paclitaxel, Paclitaxel, reference compound], the “polymerization of purified tubulin in solution” value in data set [5] (30 min, 37° C., electron microscopy) is “polymerize in solution into typical, long, straight microtubules”. Also, the “stability of induced microtubules” value in data set [5] (at 0C) was “stable”. Moreover, the “effect on WST-1 reduction” value in data set [6] was “little effect”. For the same compound, the “effect on neutrophil activation” value in data set [7] is “no effect”. Moreover, the IC50 in data set [2] (HL-60 cells, ± S.E.M., read-out: IC50) amounted to 22 ± 8 nM. Besides, the “treated cells with intracellular fiber bundles” value in data set [8] (H441, 48 h, 100 nM) is given as “approximately 10%”. The micronuclei entry in [8] (H441, 2 days exposure, 100 nM) is on record as “multiple micronuclei were observed”; in data set [9], “multiple micronuclei were observed”. Moreover, the intracellular fiber bundles result in data set [8] (H441, phase-contrast microscopy) is reported as “large intracellular fiber bundles were observed”. Besides, the “b-tubulin remaining in the soluble fraction” value in data set [3] (HL-60, 100 nM) was “No detectable b-tubulin remained in the soluble fraction”. Further, the “effect on proportion of soluble to polymerized tubulin” value in [3] is “dose-dependent shifts of soluble tubulin to the particulate fraction”. In data set [10], the cell cycle arrest result is “partial cell cycle arrest at G2/M”. Also, the “metaphase-arrested cells (mitotic index)” value in [10] is 64±4%.

Turning to pateamine [reference compound], the “nuclei break up into small vessicles (nuclear blebbing)” value in data set [4] is given as “not been observed”.
